Tests used:
22Rv1 xenografts = test: 22Rv1 xenograft tumor growth; assay type: in vivo, mice; settings: nude mice; SR2211 5 mg/kg i.p., 8k/E11 10 and 20 mg/kg i.p., five times per week (FIG. 3A)
Experimental: (§1) Four-week-old male SCID C.B17 mice (for C4-2B and VCaP) or BALB/c nu/nu athymic mice (for 22Rv11 and PC-3) were purchased from Harlan Inc. For establishing tumors, 2×10^6 cells were suspended in total of 100 μL PBS/Matrigel (1:1) and implanted subcutaneously into the dorsal flank on both sides of the mice. Animal group size of six or more was estimated to have a high statistic power, based on power calculation (http://www.biomath.info/power/) and previous studies involving the same xenograft models^34,68. When the tumor volume was approximately 80 mm^3, the mice were randomized and then treated intraperitoneally (i.p.) with 100 μl of either vehicle or RORγ antagonists SR2211, XY011/8k (in a formulation of 15% Cremophor EL, Calbiochem, 82.5% PBS, and 2.5% DMSO) for five times per week. Tumor growth was monitored by calipers with volume calculated using the equation: (π/6 (length×width2)). Body weight during the course of the study was also monitored. At the end of the studies mice were killed and tumors were dissected and weighed. Additionally, prostate, seminal vesicle, testis, kidney, heart, lung, liver, epididymal fat pad and spleen were harvested and weighed. To assess the effect of combining RORγ antagonists and ENZ on the growth of castrated-resistant VCaP xenografts (CRPC-VCaP), first, SCID C.B17 mice were injected with VCaP cells as above to establish the tumors. Then, mice bearing tumors of approximately 180 mm^3 were surgically castrated. They were then observed for tumor regression. Once tumors grew back to the pre-castration size, mice were randomized and treated with vehicle, 5 mg kg^−1 SR2211, 10 mg kg^+1 ENZ or a combination of 5 mg kg^−1 SR2211 and 10 mg kg^−1 ENZ. ENZ was given by oral gavage as previously described^68 and SR2211 was administered i.p as above. Mice were excluded from the study if bearing no tumor or tumor with size twice larger or smaller than the mean, at the time of randomization.

lung cancer cells = test: CellTiter-GLO viability, lung cancer cells; assay type: cell-based, human; settings: NSCLC cells: KRAS mutant (A427, Calu1, A549, H23, H358), BRAF mutant (H1666), EGFR mutant (HCC827, PC-9), Erlotinib-resistant (A427, H1975); 4 days
Experimental: (§2) For cell viability, cells were seeded in 96-well plates at 1500-2500 cells per well (optimum density for growth) in a total volume of 100 μl media. Serially diluted compounds in […] of media were added to the cells 12 hours later. After 4 days of incubation, Cell-Titer GLO reagents (Promega) were added and luminescence was measured on GLOMAX microplate luminometer (Promega), according to the manufacturer's instructions. All experimental points were set up as sextuplicate as biological replication and the entire experiments were repeated three times. The data are presented as percentage of viable cells with vehicle treated cells set as 100. The estimated in vitro IC50 values were calculated using GraphPad Prism 6 software.
(§3) Using a CellTiter-GLO assay, the viability of cells of different cancer types was measured after treatment with different concentrations of RORγ small molecule inhibitors for 4 days.

[1] = test system: TNBC cells including MDA-MB468, MDA-MB231, BT20, SUM149, and HCC1937; test: CellTiter-GLO viability, triple-negative breast cancer cells; assay type: cell-based; settings: Homo sapiens, 96 h, treated for 4 days
Experimental: as §2, §3

C4-2B and 22Rv1 cells [2] = test: Apoptosis (caspase-3/7 activity, TUNEL); assay type: cell-based, human
Experimental: (§4) For apoptosis, Terminal deoxynucleotidyl transferase-mediated dUTP nick end labeling (TUNEL) was performed by using in situ cell death detection kit (Roche) as previously described^56. The results are expressed as a percentage of apoptotic cell number/total cell number. Caspase-3/7 activity was measured using a luminescent caspase-Glo 3/7 assay kit (Promega Corporation, Madison, USA) following the manufacturer's instructions. For cell growth, cells were seeded in 6-well plates at 2×10^5 per well and treated as indicated. Total viable cell numbers were counted using a Coulter cell counter. For colony formation, 800 cells were seeded in a well of 6-well plates and cultured for 14 days with the medium changed every 3 days. When the cell clone grew visible, the medium was removed and the cells were fixed with […] formalin for 10 minutes. Then the plates were washed with PBS for two times and the cell colonies were stained with 0.2% crystal violet (in 10% formalin) for 15 minutes. The numbers of cell colonies were counted after washed 5 times by PBS. The above assays were performed in triplicates and the entire experiments were repeated three times.

AR-positive PCa cells = test: Prostate cancer cell growth and survival (cell viability / cell growth); assay type: cell-based, human
Experimental: as §2, §4

AR = test: Anti-AR ChIP-seq; assay type: cell-based, human; settings: C4-2B cells, 5 μM, 24 hours
Experimental: C4-2B cells were treated with vehicle or SR2211 (5 μM) for 24 hours before harvested for ChIP-seq. ChIP-seq experiments were performed as described^65. Anti-AR ChIP-seq was repeated in two independent experiments. Antibodies used were against AR (Santa Cruz; sc-815); RNA Pol II (Santa cruz; sc-899); H3K4me2 (Abcam ab32356); H3K4me3 (Abcam; ab8580); H3 (acetyl K27) (Abcam; ab4729). Libraries were quantified with the Bioanalyzer 2100 (Agilent) and sequenced on the Illumina HiSeq 2000 Sequencer (BGI, Hong Kong). Sequencing tags were mapped against the Homo sapiens (Human) reference genome (hg19) using Bowtie 2^66. Uniquely mapped tags were used for peak calling by MACS(2.1.0)^67 to identify regions of ChIP-Seq enrichment over background. A q value threshold of enrichment of 5×10^−2 was used for all data sets. Normalized genome-wide signal coverage tracks from raw read alignment files were built by MACS2, UCSC tools (http://hgdownload.cse.ucsc.edu/admin/exe/linux.x86_64/bedGraphToBigWig/bedClip) and bedTools (http://code.google.com/p/bedtools/). Visualization of ChIP-seq signal at enriched genomic regions (avgprof and heatmap) was achieved by using ngs.plot (https://github.com/shenlab-sinai/ngsplot). ChIP-seq data have been deposited to NCBI-GEO with accession code GSE72714.

AR-negative PCa cells = test: Prostate cancer cell growth and survival, AR-negative cells; assay type: cell-based, human
Experimental: as §2, §4

[3] = test system: C4-2B, VCaP and 22Rv1 xenograft tumors; test: Xenograft tumor growth, three AR-positive tumor models; assay type: in vivo, mice; settings: 5 mg/kg, i.p., five times per week; including ENZ-resistant 22Rv1
Experimental: as §1, with “Then, mice bearing tumors of approximately 180 mm^3 were surgically castrated. They were then observed for tumor regression. Once tumors grew back to the pre-castration size, mice were randomized and treated with vehicle, 5 mg kg^−1 SR2211, 10 mg kg^+1 ENZ or a combination of 5 mg kg^−1 SR2211 and 10 mg kg^−1 ENZ. ENZ was given by oral gavage as previously described^68 and SR2211 was administered i.p as above. Mice were excluded from the study if bearing no tumor or tumor with size twice larger or smaller than the mean, at the time of randomization.” left out

C4-2B and 22Rv1 cells [4] = test: Colony formation, 14 d; assay type: cell-based, human
Experimental: as §4

[5] = test system: HER2-positive cells, such as SKBR3 and HCC1954; test: CellTiter-GLO viability, HER2-positive breast cancer cells; assay type: cell-based, human; settings: SKBR3 and HCC1954, 4 days
Experimental: as §2, §3

`OC(c1ccc(-c2ccc(CN3CCN(Cc4ccncc4)CC3)cc2)c(F)c1)(C(F)(F)F)C(F)(F)F` [SR2211, 2-Fluoro-4′-[[4-(4-pyridinylmethyl)-1-piperazinyl]methyl]-a,a-bis (trifluoromethyl)-[1,1′-biphenyl]-4-methanol] was tested, and the “growth of xenograft tumors” value (22Rv1 xenografts) was “strongly inhibited growth of xenograft tumors”, the “growth and survival of lung cancer cells” value (lung cancer cells) was “strongly inhibited the growth and survival of lung cancer cells” and the IC50 [1] was 1 to 10 µM. For the same compound, the apoptosis (C4-2B and 22Rv1 cells [2]) was “marked apoptosis”, the “growth inhibition in other AR-positive PCa cell models” value (AR-positive PCa cells; 22Rv1, VCaP, LNCaP, LAPC4 and PC346C) was “strong growth inhibition” and the “inhibition of AR-positive PCa cell growth and survival” value (AR-positive PCa cells; different cell line models) was “potent inhibition of AR-positive PCa cell growth and survival”. The “genome-wide AR binding to its target loci” value (AR) was “dramatic inhibition of genome-wide AR binding”, the “inhibition of cell growth and survival in AR-negative cells” value (AR-negative PCa cells) was “not in the AR-negative cells” and the tumor growth [3] was “effectively stopped the tumor growth”. The colony formation (C4-2B and 22Rv1 cells [4]) was “poor colony formation” and the “inhibition of HER2-positive cells” value [5] was “relatively strong inhibition”.
